Measured values as given in patent publication US20230124492A1, “COMPOSITIONS AND METHODS FOR SUBSTITUTED 7-(PIPERAZIN-1-YL)PYRAZOLO[1,5-A]PYRIMIDINE ANALOGS AS INHIBITORS OF KRAS” (The Board of Regents of the University of Texas System, priority 2019, published 2023).

Columns and labels:
[1] = target: T1, G12D KRAS (Homo sapiens, UniProt P01116, G12D); assay: Intrinsic fluorescence (IF) binding affinity, G12D KRAS bound to GNP
Procedure: (§1) FIGS. 2A-I illustrates the measurements of binding affinity of ligands to wild type (WT) or G120 KRAS bound to the GTP analogue GNP and, for selected exemplary embodiments, effect of ligands on the rate of SOS-mediated nucleotide exchange reaction. Binding affinity was determined using intrinsic fluorescence, which made use of the ligands' intrinsic fluorescence and the accompanying change (decrease or increase in intensity) upon binding to KRAS.
as §1, with “G12D” for “G120”, “reaction,” for “reaction.”
(§2) Solutions of ligand (0 to 50 μM) are mixed with equal volumes of KRAS (fixed concentration) and fluorescence spectra are obtained. The difference spectra (between KRAS-ligand mixture and ligand alone) are plotted and the area under the curve is obtained. Kd is estimated from the plot of area versus the ligand concentration. SOS-mediated nucleotide rate was monitored using the fluorescence intensity increase of BODIPY-GTP (B GTP) as it displaces GDP from KRAS. The reaction mixture (100 μL, 96 well plate) contained 0.5 μM K-Ras-GDP, 0.5 μm B-GTP, 0.5 μM SOS and varying concentrations of ligands (0 to 25 μM). B-GTP and SOS mixture was added just before measurements(excitation: 485 nm, emission: 510 nm; TECAN Infinite 200 plate reader). The reaction was monitored for 1 hour. The experiments were conducted with minimal light, Fluorescence intensities were normalized with respect to the value obtained at 120 s and the traces were fit with exponential function (Igor Pro, Wavemetrics).
(§3) Note: For FIGS. 1A-H 1 (as well as one of the curves in FIGS. 2A-I), dissociation constant (Kd) was determined using either Microscale Thermophoresis (MST) or Intrinsic Fluorescence (IF) assay. MST assay uses fluorescence to monitor movement of molecules in response to temperature gradient created by infrared laser.

[2] = target: wild type (WT) KRAS (Homo sapiens, UniProt P01116); assay: Intrinsic fluorescence (IF) binding affinity, WT KRAS bound to GNP
Procedure: as §1
as §1, with “G12D” for “G120”, “reaction,” for “reaction.”
as §2, §3

[3] = target: T1, G12D KRAS; assay: Microscale thermophoresis (MST) Kd, G12D KRAS; format: binding
Procedure: (§4) Measurement of compound binding affinity to KKRAS using microscale thermophoresis (MST). MST is based on the movement of molecules in response to temperature gradient. […] KRAS was buffer-exchanged in the labeling buffer (40 mM HEPES, pH 7.5, 5 mM MgCl2, and 500 mM NaCl) using a spin column (provided in the kit) The concentration of the eluted protein was adjusted (10 to 20 μM) and 2-3 fold concentration of the dye (in labeling buffer) was added (200 μL final volume), The solution was incubated for 30 minutes at room temperature in the dark. Labeled KRAS was purified using the column provided in the kit or MST measurements, 16 point serial dilutions of ligands were made in MST Assay Buffer (40 mM HEPES, pH 7.5, 5 mM MgCl2, 100 mM NaCl+0.05% Tween-20+2-4% DMSO) and added to 100 nM KRAS. The solutions were loaded in capillaries and measurements were done using 20% LED power and 40% MST power. The data were fit in Igor Pro using Hill equation or the function in the instrument software.
(§5) Microscale thermophoresis (MST) assays were used to measure the affinity of lead compound analogs for KRAS. In a typical experiment, 100 nM KRAS labeled with a dye amine-reactive red NT-647 from NanoTemper) was mixed with different concentrations of ligand and incubated in a binding buffer (40 mM HEPES, pH 7.5, 5 mM MgCl2, 150 mM NaCl, 0.05% polysorbate 20, and 2% DMSO) at room temperature for 10 min before being loaded into a capillary. Thermophoresis is carried out and dissociation constant calculated by monitoring changes in fluorescence intensity. A monolith NT.115 Reader from NanoTemper can be used for MST experiments, with 40% MST and 20% LED power.
as §3

[4] = target: T2, WT KRAS (Homo sapiens, UniProt P01116); assay: SOS-mediated nucleotide exchange assay, WT KRAS; format: biochemical; settings: for SOS-mediated nucleotide exchange WT, single-dose test (effect / No effect): 25 microMolar ligand; for EC50: SOS-mediated nucleotide exchange, dose-response
Procedure: (§6) In other experiments, the compounds disclosed herein can be tested for their abilities to affect rates of intrinsic and SOS-catalyzed nucleotide exchange and release. These assays use fluorescently-labeled BODIPY-GDP (BGDP) and BODIPY-GTP (BGTP), which have increased fluorescence intensity when bound to KRAS. Rate of nucleotide exchange is determined by rate of increase in fluorescence after BGTP is added to GDP-KRAS in the absence or presence of SOS Rate of nucleotide release is determined from rate of decrease in, fluorescence when excess GTP is added to KRAS loaded with BGDP in the presence or absence of SOS, where SOS is “Sons of Sevenless” referring to a set of genes encoding guanine nucleotide exchange factors.
as §2

[5] = target: KRAS (Homo sapiens, UniProt P01116, G12D); assay: Microscale thermophoresis (MST) binding affinity to KRAS (Table 1); settings: 100 nM labeled KRAS, read-out: kD (dissociation constant)
Procedure: as §4, §5
Dissociation constants (IQ)) calculated from the thermophoresis results of selected compounds according to the present disclosure are presented in Table 1 below.
as §3

[6] = target: T2, WT KRAS; assay: Intrinsic nucleotide exchange assay, WT KRAS; format: biochemical; settings: for EC50: intrinsic nucleotide exchange, dose-response; for Intrinsic nucleotide exchange WT, single-dose test (effect / No effect): 25 microMolar ligand
Procedure: as §6

KRAS, sequence (P01116 whole entry G12D): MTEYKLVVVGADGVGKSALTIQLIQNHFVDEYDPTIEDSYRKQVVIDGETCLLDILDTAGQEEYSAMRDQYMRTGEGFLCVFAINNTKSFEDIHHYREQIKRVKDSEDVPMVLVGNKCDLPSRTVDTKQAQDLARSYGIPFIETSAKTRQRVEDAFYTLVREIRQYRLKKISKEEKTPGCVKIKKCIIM
T1 sequence (P01116 1-188 isoform P01116-2 G12D): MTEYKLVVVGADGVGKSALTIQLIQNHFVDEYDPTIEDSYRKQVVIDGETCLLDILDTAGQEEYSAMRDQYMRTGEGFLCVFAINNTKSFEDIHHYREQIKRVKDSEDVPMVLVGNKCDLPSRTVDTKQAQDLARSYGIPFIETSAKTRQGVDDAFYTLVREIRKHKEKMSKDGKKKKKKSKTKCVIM
wild type (WT) KRAS, sequence (P01116 1-188 isoform P01116-2): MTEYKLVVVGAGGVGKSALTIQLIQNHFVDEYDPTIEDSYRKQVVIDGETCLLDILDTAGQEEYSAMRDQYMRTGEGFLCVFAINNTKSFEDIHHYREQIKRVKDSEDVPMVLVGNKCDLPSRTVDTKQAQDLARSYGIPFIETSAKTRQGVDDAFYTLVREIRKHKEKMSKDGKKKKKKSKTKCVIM
T2 sequence (P01116 1-188 isoform P01116-2): as above

Row | Compound | Kd [1] | Kd [2] | SOS-mediated nucleotide exchange WT, single-dose test (effect / No effect) [4] | further results
1 | Cc1nn2c(N3CCC(CCO)CC3)cc(-c3ccc(F)cc3)nc2c1-c1ccccc1 [Compound C39] | 22.9 ± 2.2 µM | 39.5 ± 1.9 µM |  | 
2 | Cc1nn2c(NCCN(C)C)cc(-c3ccccc3)nc2c1-c1ccccc1 [Compound C15] |  |  |  | Kd [3]: 0.99 ± 0.1 µM
3 | COc1ccccc1N1CCN(c2cc(-c3ccccc3)nc3c(-c4ccccc4)c(C)nn23)CC1 [Compound C7] |  |  |  | Kd [5]: > 86 µM
4 | Cc1nn2c(NCCN(C)C)cc(-c3ccccc3)nc2c1-c1ccccc1 [Compound C4] |  |  |  | Kd [5]: 0.99 ± 0.14 µM
5 | OCCN1CCN(c2cc(-c3ccccc3)nc3c(-c4ccccc4)c(C4CC4)nn23)CC1 [C29″] |  |  | effect in single- dose @ 25 uM | 
6 | OCCN1CCN(c2cc(-c3ccccc3)nc3c(-c4ccccc4)c(-c4ccccc4)nn23)CC1 [C14″] | 11.2 ± 0.2 µM | 12.3 ± 0.1 µM |  | EC50 [6]: 12.4 ± 4.8 µM; Kd [3]: 0.88 ± 0.4 µM
7 | COCCN1CCN(c2cc(-c3ccccc3)nc3c(-c4ccccc4)c(C)nn23)CC1 [Compound C6] |  |  |  | Kd [5]: > 76 µM
8 | OCCN1CCN(c2cc(-c3ccccc3)nc3c(-c4ccccc4)c(-c4ccccc4)nn23)CC1 [Compound C3] |  |  |  | Kd [5]: 0.88 ± 0.36 µM
9 | COc1ccccc1N1CCN(c2cc(-c3ccccc3)nc3c(-c4ccccc4)c(C)nn23)CC1 [Compound C18] |  |  |  | Kd [3]: > 86 µM
10 | OCCN1CCN(c2cc(-c3ccccc3)nc3c(-c4ccccc4)c(C(F)(F)F)nn23)CC1 [C32″] |  |  | effect in single- dose @ 25 uM | Intrinsic nucleotide exchange WT, single-dose test (effect / No effect) [6]: effect in single- dose @ 25 uM
11 | OCCN1CCN(c2cc(-c3ccccc3)nc3c(-c4ccccc4)c(-c4ccc(O)cc4)nn23)CC1 [Compound C38] | 63.1 ± 5.3 µM | 19.1 ± 0.1 µM |  | 
12 | Cc1nn2c(N3CCN(CCO)CC3)nc(-c3ccccc3)nc2c1-c1ccccc1 [Compound C41] |  | ~20 µM |  | EC50 [6]: 15 to 25 µM
13 | Cc1cc(N2CCN(CCO)CC2)n2nc(C)c(-c3ccccc3)c2n1 [C13″] |  |  |  | EC50 [6]: 28.8 ± 4 µM; EC50 [4]: 57.8 ± 4 µM
14 | Cc1nn2c(NCCCN(C)C)cc(-c3ccccc3)nc2c1-c1ccccc1 [Compound C45] |  | 28.3 ± 5.4 µM |  | 
15 | Cc1nn2c(N3CCC(CCO)CC3)cc(-c3ccccc3)nc2c1-c1ccccc1 [Compound C40] | 25.7 ± 0.2 µM | 63.1 ± 5.3 µM |  | 
16 | COc1ccc(-c2nn3c(N4CCN(CCO)CC4)cc(-c4ccccc4)nc3c2-c2ccccc2)cc1 [Compound C37] | 11.8 ± 0.2 µM | 22.6 ± 0.3 µM |  | 
17 | Cc1cc(NCCN(C)C)n2nc(C)c(-c3ccccc3)c2n1 [Compound C16] |  |  |  | Kd [3]: > 200 µM
18 | COCc1nn2c(N3CCN(CCO)CC3)cc(-c3ccccc3)nc2c1-c1ccccc1 [Compound C43] |  | 5 to 15 µM |  | 
19 | CCOC(=O)N1CCN(c2cc(-c3ccccc3)nc3c(-c4ccccc4)c(C)nn23)CC1 [C27″] |  |  | no effect in single dose @ 25 uM | 
20 | OCCN1CCN(c2cc(-c3ccccc3)nc3c(-c4ccccc4)c(-c4cc[nH]c4)nn23)CC1 [Compound C36] | 22.4 ± 8 µM | 20.6 ± 0.4 µM |  | 
21 | COCCN1CCN(c2cc(-c3ccccc3)nc3c(-c4ccccc4)c(C)nn23)CC1 [C17″] |  |  |  | Kd [3]: > 76 µM
22 | Cc1cc2nc(-c3ccccc3)cc(N3CCN(CCO)CC3)n2n1 [Compound C44] |  | 5 to 15 µM |  | 

The next lines start with results.

Row | Kd [1] | Kd [2] | SOS-mediated nucleotide exchange WT, single-dose test (effect / No effect) [4] | Compound | further results
23 |  |  | no effect in single dose @ 25 uM | Cc1nn2c(N3CCN(CCO)CC3)cc(-c3ccncc3)nc2c1-c1ccccc1 [C22″] | Kd [3]: > 100 µM
24 |  |  | effect in single- dose @ 25 uM | COc1ccc(-c2cc(N3CCN(CCO)CC3)n3nc(C)c(-c4ccccc4)c3n2)cc1 [C25″] | 
25 | 6.8 ± 0.5 µM | 4.6 ± 0.2 µM |  | Cc1nn2c(N3CCN(CCO)CC3)cc(-c3ccc(F)cc3)nc2c1-c1ccccc1 [C21″] | EC50 [6]: 34 ± 6.4 µM; EC50 [4]: 18.8 ± 3.3 µM; Kd [3]: 0.52 ± 0.2 µM
26 | 4.54 ± 0.1 µM |  |  | Cc1nn2c(N3CCN(CCO)CC3)cc(-c3ccccc3)nc2c1-c1ccccc1 [C11″] | Kd [3]: 0.87 ± 0.1 µM
27 | 79 ± 78 µM |  | No effect in single dose @ 25 uM | Cc1nn2c(N3CCN(CCO)CC3)cc(-c3cc(F)cc(F)c3)nc2c1-c1ccccc1 [C33″] | Intrinsic nucleotide exchange WT, single-dose test (effect / No effect) [6]: effect in single- dose @ 25 uM
28 |  |  | No effect in single dose @ 25 uM | Cc1nn2c(N3CCN(CCO)CC3)cc(-c3ccccc3)nc2c1-c1ccc(O)cc1 [C31″] | Intrinsic nucleotide exchange WT, single-dose test (effect / No effect) [6]: No effect in single dose @ 25 uM
29 | 18.4 ± 10 µM | 12.2 ± 0.4 µM |  | Cc1nn2c(N3CCN(CCO)CC3)cc(-c3ccc(O)cc3)nc2c1-c1ccccc1 [C30″] | EC50 [4]: 15.9 ± 3.4 µM
30 |  |  | effect in single- dose @ 25 uM | Cc1nn2c(N3CCN(CCO)CC3)cc(-c3nccn3C)nc2c1-c1ccccc1 [C23″] | Intrinsic nucleotide exchange WT, single-dose test (effect / No effect) [6]: effect in single- dose @ 25 uM; Kd [3]: > 200 µM
31 | 23.5 ± 0.8 µM | 21.7 ± 0.4 µM | No effect in single dose @ 25 uM | Cc1nn2c(N3CCN(CCO)CC3)cc(-c3ccccc3)nc2c1-c1cc(F)cc(F)c1 [C28″] | Intrinsic nucleotide exchange WT, single-dose test (effect / No effect) [6]: effect in single- dose @ 25 uM
32 | 21.6 ± 4 µM | 8.4 ± 0.2 µM | No effect in single dose @ 25 uM | Cc1nn2c(N3CCN(CCO)CC3)cc(-c3cc(O)cc(O)c3)nc2c1-c1ccccc1 [C35″] | Intrinsic nucleotide exchange WT, single-dose test (effect / No effect) [6]: effect in single- dose @ 25 uM
33 |  |  | effect in single- dose @ 25 uM | CCc1nn2c(N3CCN(CCO)CC3)cc(-c3ccccc3)nc2c1-c1ccccc1 [C26″] | Intrinsic nucleotide exchange WT, single-dose test (effect / No effect) [6]: effect in single- dose @ 25 uM
